Results from PMC11470957, “Principles of paralog-specific targeted protein degradation engaging the C-degron E3 KLHDC2” (Nature Communications, 2024).
“And” between values parts separate entries of the source, which are not always exact repeats. Equal entries are not always repeated. Where two headings read alike, the source gives them in different places.

Target: BRD3 (Homo sapiens, UniProt Q15059)
Test: Western blot of BRD3 levels after cellular dosing
Settings: for remaining activity at 3.09691 µM: Log SJ46420 (uM) 3.09691; for remaining activity at 3.39794 µM: Log SJ46420 (uM) 3.39794
[1] = 22Rv1, read-out: BRD3 (DMSO = 100), 22Rv1 cells, Rep1, Rep2
[2] = PC-3, read-out: BRD3 (DMSO = 100), PC3 cells, Rep1, Rep2

BRD3, sequence (Q15059 whole entry): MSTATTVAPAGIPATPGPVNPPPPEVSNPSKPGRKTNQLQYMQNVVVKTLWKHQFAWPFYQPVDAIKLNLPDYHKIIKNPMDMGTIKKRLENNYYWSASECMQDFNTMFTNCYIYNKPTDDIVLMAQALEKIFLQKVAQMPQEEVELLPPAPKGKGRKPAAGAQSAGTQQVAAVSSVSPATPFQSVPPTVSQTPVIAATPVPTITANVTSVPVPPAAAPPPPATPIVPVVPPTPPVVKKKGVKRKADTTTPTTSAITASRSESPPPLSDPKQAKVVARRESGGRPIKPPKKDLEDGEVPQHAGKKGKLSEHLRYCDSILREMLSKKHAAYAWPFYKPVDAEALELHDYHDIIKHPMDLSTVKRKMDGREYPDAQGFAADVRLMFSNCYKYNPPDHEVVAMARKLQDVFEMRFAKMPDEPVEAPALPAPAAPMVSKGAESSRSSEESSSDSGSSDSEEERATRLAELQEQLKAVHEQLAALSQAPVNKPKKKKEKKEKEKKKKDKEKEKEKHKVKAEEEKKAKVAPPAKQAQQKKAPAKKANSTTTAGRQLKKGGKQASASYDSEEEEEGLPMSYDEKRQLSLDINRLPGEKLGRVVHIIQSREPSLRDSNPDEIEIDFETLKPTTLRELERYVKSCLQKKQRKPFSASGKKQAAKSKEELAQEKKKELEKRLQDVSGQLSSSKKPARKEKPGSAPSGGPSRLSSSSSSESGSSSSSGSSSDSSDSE

`COC(=O)CNC(=O)Cc1csc(-c2ccc3cccc(OCCN4CCN(C(=O)C[C@@H]5N=C(c6ccc(Cl)cc6)c6c(sc(C)c6C)-n6c(C)nnc65)CC4)c3c2)n1` [SJ46420] was tested, and the remaining activity at 3.09691 µM [1] was 29.2%, the remaining activity at 3.39794 µM [1] was 23.9% and the Dmax (22Rv1, read-out: BRD3 Dmax, 22Rv1, 24 h dose) was 93.7%. It also gave a remaining activity at 0.156 µM (22Rv1, read-out: BRD3 level, Western blot quantification (DMSO = 100), Fig S6f, 22RV1 KO/rescue Dose Response, 0.156 uM) of 71.3%, a remaining activity at 0.313 µM (22Rv1, read-out: BRD3 level, Western blot quantification (DMSO = 100), Fig S6f, 22RV1 KO/rescue Dose Response, 0.313 uM) of 46.9% and a remaining activity at 0.625 µM (22Rv1, read-out: BRD3 level, Western blot quantification (DMSO = 100), Fig S6f, 22RV1 KO/rescue Dose Response, 0.625 uM) of 42.3%. The remaining activity at 1.25 µM (22Rv1, read-out: BRD3 level, Western blot quantification (DMSO = 100), Fig S6f, 22RV1 KO/rescue Dose Response, 1.25 uM) was 29.2%, the remaining activity at 2.5 µM (22Rv1, read-out: BRD3 level, Western blot quantification (DMSO = 100), Fig S6f, 22RV1 KO/rescue Dose Response, 2.5 uM) was 23.9% and the remaining activity at 0.16 µM (24 h, read-out: BRD3 level relative to DMSO (100%), PC3, 0.16µM, 24 h, Fig S6e) was 107 ± 8.6%. The remaining activity at 0.31 µM (24 h, read-out: BRD3 level relative to DMSO (100%), PC3, 0.31µM, 24 h, Fig S6e) was 72 ± 3.2%, the remaining activity at 0.63 µM (24 h, read-out: BRD3 level relative to DMSO (100%), PC3, 0.63µM, 24 h, Fig S6e) was 32 ± 5% and the remaining activity at 1.3 µM (24 h, read-out: BRD3 level relative to DMSO (100%), PC3, 1.3µM, 24 h, Fig S6e) was 13 ± 2.8%. For the same molecule, the remaining activity at 2.5 µM (24 h, read-out: BRD3 level relative to DMSO (100%), PC3, 2.5µM, 24 h, Fig S6e) was 7.3 ± 2.7%, the remaining activity at 5 µM (24 h, read-out: BRD3 level relative to DMSO (100%), PC3, 5µM, 24 h, Fig S6e) was 4.8 ± 2.4% and the remaining activity at 10 µM (24 h, read-out: BRD3 level relative to DMSO (100%), PC3, 10µM, 24 h, Fig S6e) was 1.8 ± 2.1%. The “BRD3 levels in U2OS cell line with KLHDC2 knocked out” value (24 h dose, Fig 6b) was “unaffected”, the remaining activity at 0.2 µM (AU565, 8 h, read-out: BRD3 level relative to DMSO (100%), AU565, 0.2µM, 8 h, Fig S6c) was 56 ± 3.4% and the remaining activity at 1 µM (AU565, 8 h, read-out: BRD3 level relative to DMSO (100%), AU565, 1µM, 8 h, Fig S6c) was 29 ± 2.4%. The remaining activity at 5 µM (AU565, 8 h, read-out: BRD3 level relative to DMSO (100%), AU565, 5µM, 8 h, Fig S6c) was 3.9 ± 1.1%, the remaining activity at 0.2 µM (AU565, read-out: BRD3 level, Western blot quantification (DMSO = 100), Fig S6c, AU565 Cells, 0.2 uM) was 58.8% and the remaining activity at 1 µM (AU565, read-out: BRD3 level, Western blot quantification (DMSO = 100), Fig S6c, AU565 Cells, 1 uM) was 30.4%. For the same molecule, the remaining activity at 5 µM (AU565, read-out: BRD3 level, Western blot quantification (DMSO = 100), Fig S6c, AU565 Cells, 5 uM) was 4.75%, the remaining activity at 2.5 µM (HEK-293T, 24 h, read-out: BRD3 level relative to DMSO (100%), 293T, 2.5µM, 24 h, Fig S6a) was 44 ± 2.3% and the remaining activity at 5 µM (HEK-293T, 24 h, read-out: BRD3 level relative to DMSO (100%), 293T, 5µM, 24 h, Fig S6a) was 18 ± 3.7%. For the same molecule, the remaining activity at 2.5 µM (HEK-293T, read-out: BRD3 level, Western blot quantification (DMSO = 100), Fig S6a, 293T cells, 2.5 uM) was 46%, the remaining activity at 5 µM (HEK-293T, read-out: BRD3 level, Western blot quantification (DMSO = 100), Fig S6a, 293T cells, 5 uM) was 20.9% and the remaining activity at 2.5 µM (MDA-MB-468, 24 h, read-out: BRD3 level relative to DMSO (100%), MDA-MB-468, 2.5µM, 24 h, Fig S6b) was 41 ± 3.3%. For the same molecule, the remaining activity at 5 µM (MDA-MB-468, 24 h, read-out: BRD3 level relative to DMSO (100%), MDA-MB-468, 5µM, 24 h, Fig S6b) was 20 ± 2.9%, the remaining activity at 10 µM (MDA-MB-468, 24 h, read-out: BRD3 level relative to DMSO (100%), MDA-MB-468, 10µM, 24 h, Fig S6b) was 15 ± 2.2% and the remaining activity at 2 µM (MDA-MB-468, read-out: BRD3 level, Western blot quantification (DMSO = 100), Fig S6b, MDA-MB468 Cells, 2 uM) was 39.3%. The remaining activity at 5 µM (MDA-MB-468, read-out: BRD3 level, Western blot quantification (DMSO = 100), Fig S6b, MDA-MB468 Cells, 5 uM) was 17.8%, the remaining activity at 10 µM (MDA-MB-468, read-out: BRD3 level, Western blot quantification (DMSO = 100), Fig S6b, MDA-MB468 Cells, 10 uM) was 13.8% and the “selectivity for BRD3 over BRD4 (DC50)” value (PC3) was ~ 28 fold. For the same molecule, the remaining activity at 2.19382 µM (PC-3, read-out: BRD3 (DMSO = 100), PC3 cells, Log SJ46420 (uM) 2.19382, Rep1, Rep2) was 108%, the remaining activity at 2.49485 µM (PC-3, read-out: BRD3 (DMSO = 100), PC3 cells, Log SJ46420 (uM) 2.49485, Rep1, Rep2) was 70.7% and the remaining activity at 2.79588 µM (PC-3, read-out: BRD3 (DMSO = 100), PC3 cells, Log SJ46420 (uM) 2.79588, Rep1, Rep2) was 29.3%. For the same molecule, the remaining activity at 3.09691 µM [2] was 11.3%, the remaining activity at 3.39794 µM [2] was 5.44% and the remaining activity at 1 µM (SK-BR-3, 2 h, read-out: BRD3 level relative to DMSO (100%), SKBR3, 1µM, 2hr, Fig S6g) was 49 ± 6.7%. It also gave a remaining activity at 5 µM (SK-BR-3, 2 h, read-out: BRD3 level relative to DMSO (100%), SKBR3, 5µM, 2hr, Fig S6g) of 35 ± 5.2%, a remaining activity at 1 µM (SK-BR-3, 2 h, read-out: BRD3 level, Western blot quantification (DMSO = 100), Fig S6g, SKBR3 Time course, 1 uM, 2hr) of 54.5% and a remaining activity at 5 µM (SK-BR-3, 2 h, read-out: BRD3 level, Western blot quantification (DMSO = 100), Fig S6g, SKBR3 Time course, 5 uM, 2hr) of 39.4%. For the same molecule, the remaining activity at 1 µM (SK-BR-3, 4 h, read-out: BRD3 level relative to DMSO (100%), SKBR3, 1µM, 4hr, Fig S6g) was 36 ± 6.9%, the remaining activity at 5 µM (SK-BR-3, 4 h, read-out: BRD3 level relative to DMSO (100%), SKBR3, 5µM, 4hr, Fig S6g) was 13 ± 2.9% and the remaining activity at 5 µM (SK-BR-3, 4 h, read-out: BRD3 level relative to DMSO (100%), SKBR3, 5µM, 4hr, Fig S6j) was 31 ± 5.6%. For the same molecule, the remaining activity at 1 µM (SK-BR-3, 4 h, read-out: BRD3 level, Western blot quantification (DMSO = 100), Fig S6g, SKBR3 Time course, 1 uM, 4hr) was 41.9%, the remaining activity at 5 µM (SK-BR-3, 4 h, read-out: BRD3 level, Western blot quantification (DMSO = 100), Fig S6g, SKBR3 Time course, 5 uM, 4hr) was 15.1% and the remaining activity at 1 µM (SK-BR-3, 8 h, read-out: BRD3 level relative to DMSO (100%), SKBR3, 1µM, 8hr, Fig S6g) was 32 ± 3.5%. It also gave a remaining activity at 5 µM (SK-BR-3, 8 h, read-out: BRD3 level relative to DMSO (100%), SKBR3, 5µM, 8hr, Fig S6g) of 8.8 ± 2.6%, a remaining activity at 1 µM (SK-BR-3, 8 h, read-out: BRD3 level, Western blot quantification (DMSO = 100), Fig S6g, SKBR3 Time course, 1 uM, 8hr) of 35% and a remaining activity at 5 µM (SK-BR-3, 8 h, read-out: BRD3 level, Western blot quantification (DMSO = 100), Fig S6g, SKBR3 Time course, 5 uM, 8hr) of 10.6%. The remaining activity at 5 µM (SK-BR-3, read-out: BRD3 level, Western blot quantification (DMSO = 100), Fig S6i, SKBR3, 5uM) was 27.2%, the “potency relative to K2-B4-3e (more potent)” value (SKBR3 4 h, U2OS 8 h) was ~ 3 fold and 2-3 fold and the “selectivity of BRD3 over BRD4 degradation” value (SKBR3, 8 hr) was ~ 5 fold.
